Holding throughout (experiment): Broth microdilution MIC, cephalosporin alone
Holding throughout (format): cell-based

Assay [1] relates to Klebsiella pneumoniae expressing carbapenem class A KPC2. The settings on record: antibiotic alone, K. pneumoniae KPC2, CAMHB. An excerpt: (§1) To determine that ability of the test compound to inhibit the growth of beta-lactamase-producing bacterial strain, traditional cell-based screening experiments were employed. Six bacterial strains producing beta-lactamases were used: Escherichia coli expressing class an extended spectrum beta-lactamases (esbl) ctxm15 and shv5 (E. coli), Klebsiella pneumoniae expressing class a carbapenem enzyme kpc2, Pseudomonas aeruginosa expressing class B VIM-2, Enterobacter cloacae expressing class C P99+, and Acinetobacter baumannii expressing class D OXA-23 were studied. […] This experiment was performed in Cation Adjusted Mueller Hinton Broth (CAMHB, BD #212322, BD Diagnostic Systems, Sparks, Md.). The bacterial strains were grown in CAMBH broth for […]. All six strains were grown in the presence of 50 μg/mL ampicillin to ensure that resistance was maintained. At the same time, the test compound was diluted into 0.1 mg/mL stock solution in DMSO. The compound was added to the microplate and diluted in a 2-fold series in CAMHB to a final concentration of 32 to 0.25 μg/mL. A cover layer containing cephalosporin CAMHB was added to the compound at a termination concentration of 8 μg/mL or […]. […] The MIC reading of the dose escalation test of the test compound indicates the concentration of the analyte sufficient to inhibit beta-lactamase activity and protect the original antibacterial activity of cephalosporins. Six plates are required for each compound and each plate is used for one bacterial strain. In addition to the dose escalation test of the test compound, the MIC of a group of cephalosporins was tested to ensure that the strain remained consistent in behavior between the test and the test. Once the test compound and cephalosporin are added, the plates may be inoculated. The inoculation was carried out according to the CLSI broth microdilution method.

Assay [2] deals with Acinetobacter baumannii expressing class D enzyme OXA-23.
Excerpt: as §1

For assay [3], the system named is Pseudomonas aeruginosa expressing class B enzyme VIM-2.
Excerpt: as §1

Assay [4] deals with Enterobacter cloacae expressing class C P99+AmpC.
Excerpt: as §1

Assay [5] has as its system Escherichia coli expressing class A ESBL SHV5. Conditions: read-out: MIC alone.
Excerpt: as §1

For assay [6], the system named is E. coli expressing class A ESBLCTXM15. Conditions: Escherichia coli.
Excerpt: as §1

Structures are written as SMILES. ≈ marks a conversion by molar mass, not a printed value. A value given as a limit tells only on which side of the number the result lay.

For the compound `CC(C)(O/N=C(\C(=O)N[C@@H]1C(=O)N2C(C(=O)[O-])=C(C[n+]3ccccc3)CS[C@H]12)c1csc(N)n1)C(=O)O` [Ceftazidime], the MIC in assay [1] is 32 µg/mL (≈ 58.5 µM); in assay [2], > 256 µg/mL; in assay [3], > 256 µg/mL; in assay [4], 256 µg/mL (≈ 468 µM); in assay [5], > 1020 µg/mL.

Take `CO/N=C(\C(=O)N[C@@H]1C(=O)N2C(C(=O)O)=C(COC(C)=O)CS[C@H]12)c1csc(N)n1` [cefotaxime]: the MIC in assay [6] came out at 1020 µg/mL (≈ 2250 µM).

For the origin of these results see US10479805B2, “Beta-lactamase inhibitor” (priority 2016, dated 2019).
